# Measurements reported in patent US20200323790A1, “METHOD FOR TREATMENT OF ACUTE LUNG INJURY BY USE OF KIRENOL” (CHUNG SHAN MEDICAL UNIVERSITY, priority 2019, published 2020).
# Columns and labels:
# [1] = test system: superoxide dismutase (SOD); experiment: Antioxidant enzyme activity in lung tissue: SOD; type: in vivo, mice; settings: kirenol 3, 10, 30 mg/kg IP; vs LPS stimulated group; FIG. 6
# Experimental: (§1) BALB/c mice (5-7 weeks old) are obtained from the National Laboratory Animal Center (NLAC) and maintained in the laboratory for a week in order to adapt to the environment. Then experiments are carried out as follows. The mice are divided into three groups. The control group: mice in the group are injected with normal saline by intratracheal injection (IT). The LPS stimulated group: mice in the group are treated with a 50 μL solution containing 100 μg of lipopolysaccharide (LPS) by IT for inducing ALI. The kirenol group: mice are given an intraperitoneal injection (IP) of 3 mg/kg, 10 mg/kg, and 30 mg/kg of kirenol respectively. After 30 minutes, each mouse is treated with 100 μg of LPS by IT. The dexamethasone group: mice are dosed with 1 mg/kg of dexamethasone by IP and then treated with 100 μg of LPS by IT after 30 minutes.
# (§2) The mice in the respective group are killed 6 hours after LPS administration. Then use bronchoalveolar lavage (BAL) to get (Bronchoalveolar lavage fluid (BALF). And perform differential blood count, detect neutrophil activity and measure protein content in BALF. The lung tissue of the mice is used in histopathology examination, analysis of pulmonary edema, lipid peroxidation assay, and antioxidant activity analysis.
# (§3) During acute lung injury, the increasing pulmonary oxidative stress easily leads to lung tissue damage. […]
# BALB/c mice [2] = experiment: Lipid peroxidation (malondialdehyde, MDA) in lung of LPS-induced ALI mice; type: in vivo; settings: kirenol 3, 10, 30 mg/kg IP; vs LPS stimulated group; FIG. 5
# Experimental: as §1
# (§4) The mice in the respective group are killed 6 hours after LPS administration. […]
# For evaluation of lung tissue damage, the amount of malondialdehyde (MDA), the final product of lipid peroxidation in lung, is measured. […] Lastly absorbance of the mixed solution is measured at 532 nm.
# BALB/c mice [3] = experiment: Histopathology (H&E) of lung in LPS-induced ALI mice; type: in vivo; settings: LPS 100 μg IT; kirenol 3, 10, 30 mg/kg IP or dexamethasone 1 mg/kg IP 30 min before LPS; 6 h after LPS; FIG. 1
# Experimental: as §1, §2
# Kirenol used is obtained from ChemFaces (Catalog No. CFN98867) dissolved in Dimethyl sulfoxide (DMSO). […]
# [4] = test system: glutathione peroxidase (GSH); experiment: Antioxidant enzyme activity in lung tissue: glutathione peroxidase; type: in vivo, mice; settings: kirenol 3, 10, 30 mg/kg IP; vs LPS stimulated group; FIG. 8
# Experimental: as §1, §2, §3
# BALB/c mice [5] = experiment: Neutrophils in BALF (Giemsa stain) in LPS-induced ALI mice; type: in vivo; settings: kirenol 3, 10, 30 mg/kg IP; vs LPS stimulated group; FIG. 4
# Experimental: as §1, §4
# (§5) Polymorphonuclear leucocytes and protein in the capillary flow into the alveoli while alveolar capillary barrier being damaged. Thus the integrity of alveolar capillary barrier can be evaluated by analysis of the content of polymorphonuclear leucocytes and protein in the BALF. […]
# BALB/c mice [6] = experiment: Protein content in BALF (Bradford assay) in LPS-induced ALI mice; type: in vivo; settings: kirenol 3, 10, 30 mg/kg IP, FIG. 3
# Experimental: as §1, §4, §5
# BALB/c mice [7] = experiment: Lung tissue wet/dry ratio (lung edema) in LPS-induced ALI mice; type: in vivo; settings: kirenol 3, 10, 30 mg/kg IP, FIG. 2
# Experimental: as §1, §2
# The mice are killed and lung tissue is obtained. […] Thereby the wet/dry ratio of the lung tissue is calculated by dividing the wet weight by the dry weight.
# catalase (CAT) = experiment: Antioxidant enzyme activity in lung tissue: CAT; type: in vivo, mice; settings: kirenol 3, 10, 30 mg/kg IP; vs LPS stimulated group; FIG. 7
# Experimental: as §1, §2, §3
structure (smiles),measurement,setting,value
C[C@@]1(CO)C[C@@H](O)C[C@@]2(C)[C@@H]3CC[C@](C)([C@@H](O)CO)C=C3CC[C@H]12 [Kirenol],activity of SOD in lung,[1],increased in a dose dependent manner
same,lipid peroxidation in lung (MDA),BALB/c mice [2],prevents lipid peroxidation caused by LPS in a dose dependent manner
same,hyaline membrane formation in lung,BALB/c mice [3],reduces hyaline membrane formation in lung and immune cell infiltration induced by LPS in a dose dependent manner
same,immune cell infiltration in lung,BALB/c mice [3],reduces hyaline membrane formation in lung and immune cell infiltration induced by LPS in a dose dependent manner
same,activity of GSH (glutathione peroxidase) in lung,[4],increased in a dose dependent manner
same,number of neutrophils / neutrophil infiltration in alveolar cavity,BALB/c mice [5],reduces neutrophil infiltration in alveolar cavity caused by LPS in a dose dependent manner
same,integrity of alveolar capillary barrier,BALB/c mice [6],prevents damage to the integrity of alveolar capillary barrier caused by LPS in a dose dependent way
same,protein content in BALF,BALB/c mice [6]; vs LPS stimulated group,lowered
same,lung edema induced by LPS,BALB/c mice [7],improves lung edema induced by LPS in a dose dependent fashion
same,wet/dry ratio of the lung tissue,BALB/c mice [7]; vs LPS stimulated group,reduced
same,activity of CAT in lung,catalase (CAT),increased in a dose dependent manner
